Measured values from article PMC6435658, “Investigation into the Molecular Mechanisms underlying the Anti-proliferative and Anti-tumorigenesis activities of Diosmetin against HCT-116 Human Colorectal Cancer” (Scientific Reports, 2019).
In brackets after ≈: the same amount, converted by molar mass.

How the values were obtained:
CCD-841 cells = assay: MTT cytotoxicity assay, CCD-841 normal colon cells; assay type: cell-based; settings: Homo sapiens, CCD-841 non cancerous cells
Protocol: (§1) Cytotoxicity property of Dis against HCT-116 and CCD-841 cells were measured by MTT assay as described by Mossman[77]. Briefly, cells were treated with different concentration of Dis and 5-Fu (positive control) with serial dilution factor of 2 for 8 concentrations in 96 well-plate for different time points (24 h, 48 h and 72 h). Subsequently at the end of each time point 20 µl of MTT (5 mg/ml, Affymetrix,Cleveland, OH, USA) were added to each well followed by 4 h incubation. The solutions were aspirated after 4 h and 100 µl of DMSO were added to each well. Absorbance for each well was read at 570 nm as measured by using microplate reader (Tecan Infinite multimode, Männedorf, Switzerland). Cytotoxicity (cell death) was measured by using the following formula: Celldeath(%)=sampleOD−controlOD/controlOD100
(§2) This assay was performed in triplicates in three independent experiments. The cytotoxicity property of Dis was presented as IC50 value.

HT-29 cells = assay: MTT cytotoxicity assay, HT-29; assay type: cell-based, human; settings: for IC50: Homo sapiens, MTT
Protocol: [Worded in the source for another cell line; this cell line is reported under the same test.] as §1, §2

HCT-116 cells = assay: MTT cytotoxicity assay, HCT-116; assay type: cell-based, human; settings: for IC50: Homo sapiens, MTT
Protocol: as §1, §2

`O=c1[nH]cc(F)c(=O)[nH]1` [5-FU, 5-Fluorouracil, reference compound] gave an IC50 (CCD-841 cells; 24 h) of 197 ± 14.7 µg/mL (≈ 1510 µM), an IC50 (CCD-841 cells; 48 h) of 28.3 ± 0.67 µg/mL (≈ 218 µM) and an IC50 (CCD-841 cells; 72 h) of 14.5 ± 0.68 µg/mL (≈ 111 µM). The IC50 (HT-29 cells; HT-29, 24 h) was 10.3 ± 2.7 µg/mL (≈ 79 µM), the IC50 (HT-29 cells; HT-29, 48 h) was 10.5 ± 1.3 µg/mL (≈ 80.6 µM) and the IC50 (HT-29 cells; HT-29, 72 h) was 2.24 ± 0.53 µg/mL (≈ 17.2 µM). The “Selectivity Index (SI)” value (HT-29 cells; IC50 CCD-841 / IC50 HT-29, 24 h) was 19.15, the “Selectivity Index (SI)” value (HT-29 cells; IC50 CCD-841 / IC50 HT-29, 48 h) was 2.7 and the “Selectivity Index (SI)” value (HT-29 cells; IC50 CCD-841 / IC50 HT-29, 72 h) was 6.46. The IC50 (HCT-116 cells; HCT-116, 24 h) was 5.43 ± 0.48 µg/mL (≈ 41.7 µM), the IC50 (HCT-116 cells; HCT-116, 48 h) was 3.07 ± 0.34 µg/mL (≈ 23.6 µM) and the IC50 (HCT-116 cells; HCT-116, 72 h) was 1.47 ± 0.4 µg/mL (≈ 11.3 µM). For the same molecule, the “Selectivity Index (SI)” value (HCT-116 cells; IC50 CCD-841 / IC50 HCT-116, 24 h) was 36.27, the “Selectivity Index (SI)” value (HCT-116 cells; IC50 CCD-841 / IC50 HCT-116, 48 h) was 9.23 and the “Selectivity Index (SI)” value (HCT-116 cells; IC50 CCD-841 / IC50 HCT-116, 72 h) was 9.85.
